Reference: patent US20020013306A1, “TERPYRIDINE-PLATINUM(II) COMPLEXES” (priority 1996, published 2002)

Tests used:
[1] = tested on: A2780cis^R human ovarian carcinoma cell line (cisplatin resistant); assay: 96 h growth inhibition, sulforhodamine B assay, A2780cisR; type: cell-based; settings: for IC50: 96 h exposure, growth inhibition, v = variable (mean); for RF resistance factor: IC50 resistant line/IC50 parent line: A2780cis^R / A2780
[2] = tested on: CH1 human ovarian carcinoma cell line; assay: 96 h growth inhibition, sulforhodamine B assay, CH1; type: cell-based; settings: 96 h exposure, v = variable (mean)
[3] = tested on: A2780 human ovarian carcinoma cell line; assay: 96 h growth inhibition, sulforhodamine B assay, A2780; type: cell-based; settings: 96 h exposure, v = variable (mean)
[4] = tested on: T. brucei (S427) bloodstream trypomastigotes; assay: Trypanosoma brucei bloodstream trypomastigote culture; type: cell-based
[5] = tested on: SKOV3 human ovarian carcinoma cell line; assay: 96 h growth inhibition, sulforhodamine B assay, SKOV3; type: cell-based; settings: 96 h exposure, v = variable (mean)
[6] = tested on: CH1dox^R human ovarian carcinoma cell line (doxorubicin resistant); assay: 96 h growth inhibition, sulforhodamine B assay, CH1doxR; type: cell-based; settings: for IC50: 96 h exposure, growth inhibition; for RF resistance factor: IC50 resistant line/IC50 parent line: CH1dox^R / CH1
[7] = tested on: CH1cis^R human ovarian carcinoma cell line (cisplatin resistant); assay: 96 h growth inhibition, sulforhodamine B assay, CH1cisR; type: cell-based; settings: for IC50: 96 h exposure, growth inhibition, v = variable (mean); for RF resistance factor: IC50 resistant line/IC50 parent line: CH1cis^R / CH1
[8] = tested on: P falciparum (chloroquin resistant strain K1); assay: In vitro antimalarial activity, chloroquine resistant K1; settings: for % Inhibition (compound duplicates), K1 P. falciparum: duplicates (1),(2)
Method: Plasmodium falciparum: P falciparum (chloroquin resistant strain K1) was cultured at 37° C. in a 5% suspension of infected so erythrocytes (group A Rh^+) in complete medium as described by E L Elueze, S L Croft and D C Warhurst, J Antimicrobial Chemotherapy, 1996, 37, 511-518. The in vitro antimalarial activity of compounds were likewise determined according to their protocol. Mefloquin was used as the positive control.”

T. cruzi (MHOM/BR/00/Y) = assay: Trypanosoma cruzi in mouse peritoneal macrophages; type: cell-based
Method: Trypanosoma cruzi: […] Drug activity was determined from the % of infected macrophages in treated cultures. Nifurtimox was used as the positive control.

Compound | IC50 [1] [µM] | RF resistance factor: IC50 resistant line/IC50 parent line [1] | IC50 [2] [µM] | IC50 [3] [µM] | % Inhibition, Trypanosoma brucei ([4]; 0.1 μM) [%] | % Inhibition, Trypanosoma brucei ([4]; 0.3 μM) [%] | % Inhibition, Trypanosoma brucei ([4]; 1 μM) [%] | % Inhibition, Trypanosoma brucei ([4]; 3 μM) [%] | % Inhibition, Trypanosoma brucei ([4]; 10 μM) [%] | % Inhibition, Trypanosoma brucei ([4]; 30 μM) [%] | IC50 [5] [µM] | IC50 [6] [µM] | RF resistance factor: IC50 resistant line/IC50 parent line [6] | IC50 [7] [µM] | RF resistance factor: IC50 resistant line/IC50 parent line [7] | % Inhibition, Trypanosoma cruzi (T. cruzi (MHOM/BR/00/Y); 1 μM) [%] | % Inhibition, Trypanosoma cruzi (T. cruzi (MHOM/BR/00/Y); 3 μM) [%] | % Inhibition, Trypanosoma cruzi (T. cruzi (MHOM/BR/00/Y); 10 μM) [%] | % Inhibition, Trypanosoma cruzi (T. cruzi (MHOM/BR/00/Y); 30 μM) [%] | further results
Cc1cc[n+]([Pt-2]23[n+]4ccccc4-c4cc(-c5ccc(Br)cc5)cc([n+]42)-c2cccc[n+]23)cc1.F[B-](F)(F)F.F[B-](F)(F)F [Q] | 29.5 | 0.8 | 5 | 39 | 0 | 100 | 100 | 100 | 100 | 100 | > 100 | 1.05 | 0.2 | 5.8 | 1.2 | – | – | – | – | % Inhibition (compound duplicates), K1 P. falciparum ([8]; Concn. 15 μM): 97.0%; % Inhibition (compound duplicates), K1 P. falciparum ([8]; Concn. 30 μM): 99.8%; % Inhibition (compound duplicates), K1 P. falciparum ([8]; Concn. 75 μM): 98.6%; % Inhibition (compound duplicates), K1 P. falciparum ([8]; Concn. 375 μM): 60.8%; % Inhibition (compound duplicates), K1 P. falciparum ([8]; Concn. 1875 μM): 46.1%; % Inhibition (compound duplicates), K1 P. falciparum ([8]; Concn. 09375 μM): 0%; % Inhibition (compound duplicates), K1 P. falciparum ([8]; Concn. 046875 μM): 0%; % Inhibition (compound duplicates), K1 P. falciparum ([8]; Concn. 0234375 μM): 0%; IC50 ([8]; read-out: IC50 (avg), K1 P. falciparum, average of duplicates): 2.4 µM
Cc1ccncc1.F[B-](F)(F)F.F[B-](F)(F)F.NNc1cc(-c2ccccn2)nc(-c2ccccn2)c1.[Pt+2] [R, (4-Picoline)(4′-Hydrazino-2,2′:6′,2″-Terpyridine) Platinum (II) Tetrafluoroborate] | 89 | 2.3 | 16 | 39 | 4.9 | 29.6 | 100 | 100 | 100 | 100 | 80 | 5.3 | 0.3 | 13.5 | 0.8 | 60.8 | 57.7 | 65.8 | 60.1 | –
CN(N)c1cc(-c2ccccn2)nc(-c2ccccn2)c1.Cc1ccncc1.F[B-](F)(F)F.F[B-](F)(F)F.[Pt+2] [S, (4-Picoline)(4′-(1 -Methylhydrazino)-2,2′:6′,2″-Terpyridine) Platinum (II) Tetra-fluoroborate] | 62 | 3.4 | 65 | 18 | 0 | 22.5 | 44.4 | 98.3 | 100 | 100 | > 100 | 14.5 | 0.2 | > 100 | – | 60.9 | 53.3 | 53.3 | 334 | –
Cc1ccncc1.Cc1ccncc1.F[B-](F)(F)F.F[B-](F)(F)F.F[B-](F)(F)F.F[B-](F)(F)F.O=C(CCCCC(=O)NNc1cc(-c2ccccn2)nc(-c2ccccn2)c1)NNc1cc(-c2ccccn2)nc(-c2ccccn2)c1.[Pt+2].[Pt+2] [V, Adipoyl-Linked-Bis[4-Picoline(4′-Hydrazino-2,2′:6′,2″-Terpyridine) Platinum(II)] Tetrafluoroborate] | 40 | 2.1 | 48 | 19 | 0 | 0 | 0 | 100 | 100 | 100 | 98 | 40 | 0.8 | 42 | 0.9 | 0 | 0 | 0 | 0 | –
CN(NC(=O)CCCCC(=O)NN(C)c1cc(-c2ccccn2)nc(-c2ccccn2)c1)c1cc(-c2ccccn2)nc(-c2ccccn2)c1.Cc1ccncc1.Cc1ccncc1.F[B-](F)(F)F.F[B-](F)(F)F.F[B-](F)(F)F.F[B-](F)(F)F.[Pt+2].[Pt+2] [W, Adipoyl-Linked-Bis[4-Picoline(4′-(1 -Methylhydrazino)-2,2′:6′,2″-Terpyridine) Platinum(II)] Tetrafluoroborate] | 10.5 | 0.6 | 48 | 17 | 0 | 0 | 0 | 0 | 59.8 | 100 | > 100 | 58 | 1.2 | 46 | 0.9 | 0 | 0 | 0 | 8.3 | –
